Results reported in patent US20210038587A1, “METHODS AND COMPOSITIONS FOR TREATING NON-ERK MAPK PATHWAY INHIBITOR-RESISTANT CANCERS” (BIOMED VALLEY DISCOVERIES, INC., priority 2013, published 2021).

How the values were obtained:
RKO colorectal cell line = experiment: Western blot of nuclear and cytoplasmic fractions; type: cell-based; settings: versus DMSO
Procedure: For Western blot analysis, A375 cells were seeded onto 10 cm dishes in Dulbecco's Modified Eagle's Medium plus 10% (v/v) FBS. Cells were allowed to adhere overnight prior to the addition of test compound or vehicle. For experiments with RKO cells, these cells were seeded in 6-well plates or 10 cm dishes with McCoy's 5A+10% (v/v) FBS. Cells were then treated at the desired concentration and duration. Cells were harvested by trypsinization, pelleted, and snap frozen. Lysates were prepared with RIPA buffer supplemented with protease and phosphatase inhibitor cocktails (Roche), clarified by centrifugation at 11,000 rpm for 10 minutes, and quantitated by bicinchoninic acid assay. Samples were resolved by SDS-PAGE, blotted onto polyvinylidene difluoride membranes, and probed using antibodies (i.e., pRB [Ser780], cat. no. 9307; CCND1, cat. no. ab6152; BCL-xL, cat. no. 2762; PARP, cat. no. 9542; DUSP6, cat. no. 3058S) directed to the indicated targets.
In resting cells, ERK1/2 localizes to the cytoplasm, and once stimulated pERK1/2 migrates to target organelles, particularly the nucleus where transcriptional targets are activated (Wainstein et al. 2016). In DMSO-treated control cells, pERK1/2 is evident in both nuclear and cytoplasmic fractions, which is likely reflective of MAPK pathway activity due to the presence of BRAF^V600E in this cell line.

CDK1/cyclinB = CDK1/cyclinB (Homo sapiens, UniProt P06493); experiment: Kinase counter-screen, Ki; type: biochemical; settings: apparent Ki
Chain of CDK1/cyclinB (P06493 whole entry, species assumed): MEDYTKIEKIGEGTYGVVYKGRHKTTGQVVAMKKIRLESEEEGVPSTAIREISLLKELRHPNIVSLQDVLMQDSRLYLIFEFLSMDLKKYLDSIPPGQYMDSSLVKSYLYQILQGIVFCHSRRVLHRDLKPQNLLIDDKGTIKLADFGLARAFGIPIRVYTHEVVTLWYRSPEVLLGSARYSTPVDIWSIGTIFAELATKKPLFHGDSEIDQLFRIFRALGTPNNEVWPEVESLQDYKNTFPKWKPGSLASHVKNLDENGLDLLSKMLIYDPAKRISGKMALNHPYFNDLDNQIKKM
Chain of CDK1/cyclinB (P14635 whole entry partner, species assumed): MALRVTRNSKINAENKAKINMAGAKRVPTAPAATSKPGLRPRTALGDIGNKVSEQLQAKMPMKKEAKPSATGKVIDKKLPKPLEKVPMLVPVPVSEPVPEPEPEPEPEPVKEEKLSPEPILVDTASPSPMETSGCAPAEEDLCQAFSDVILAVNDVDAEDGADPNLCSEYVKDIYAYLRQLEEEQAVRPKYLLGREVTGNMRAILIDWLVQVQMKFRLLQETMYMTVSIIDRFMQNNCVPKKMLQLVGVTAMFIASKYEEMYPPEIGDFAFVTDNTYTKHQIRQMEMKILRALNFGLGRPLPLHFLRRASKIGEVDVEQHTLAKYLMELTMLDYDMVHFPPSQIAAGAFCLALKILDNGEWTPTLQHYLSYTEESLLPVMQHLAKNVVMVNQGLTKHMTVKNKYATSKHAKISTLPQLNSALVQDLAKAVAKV
Source text: (§3) The ATP concentrations were approximately equal to the Km in all assays.

JNK2α = JNK2α (Homo sapiens, UniProt P45984); experiment: Kinase counter-screen, Ki; type: biochemical; settings: apparent Ki
Chain of JNK2α (P45984 whole entry): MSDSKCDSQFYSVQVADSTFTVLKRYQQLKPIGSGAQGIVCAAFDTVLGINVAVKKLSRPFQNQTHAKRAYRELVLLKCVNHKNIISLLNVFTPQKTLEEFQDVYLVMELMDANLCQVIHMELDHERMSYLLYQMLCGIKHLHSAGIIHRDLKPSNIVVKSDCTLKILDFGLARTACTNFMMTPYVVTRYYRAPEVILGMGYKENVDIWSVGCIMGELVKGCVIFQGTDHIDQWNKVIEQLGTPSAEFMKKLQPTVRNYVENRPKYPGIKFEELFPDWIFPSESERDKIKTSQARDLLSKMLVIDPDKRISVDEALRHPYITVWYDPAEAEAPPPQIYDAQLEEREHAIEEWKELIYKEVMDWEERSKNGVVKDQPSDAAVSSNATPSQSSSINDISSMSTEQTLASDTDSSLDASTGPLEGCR
Source text: as §3

JNK3 = JNK3 (Homo sapiens, UniProt P53779); experiment: Kinase counter-screen, Ki; type: biochemical
Chain of JNK3 (P53779 whole entry, species assumed): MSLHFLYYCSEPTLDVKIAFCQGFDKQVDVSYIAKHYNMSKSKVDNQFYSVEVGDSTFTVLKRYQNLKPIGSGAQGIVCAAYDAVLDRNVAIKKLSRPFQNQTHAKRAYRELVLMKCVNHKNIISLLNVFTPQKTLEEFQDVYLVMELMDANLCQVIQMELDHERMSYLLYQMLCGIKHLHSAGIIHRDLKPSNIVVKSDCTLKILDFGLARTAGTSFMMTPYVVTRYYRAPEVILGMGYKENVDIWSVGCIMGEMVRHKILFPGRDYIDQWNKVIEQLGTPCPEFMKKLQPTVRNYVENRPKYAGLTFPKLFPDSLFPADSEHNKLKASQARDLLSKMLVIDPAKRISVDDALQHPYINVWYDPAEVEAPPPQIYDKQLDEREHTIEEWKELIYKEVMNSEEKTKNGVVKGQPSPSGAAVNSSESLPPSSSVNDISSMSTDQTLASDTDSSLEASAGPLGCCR
Source text: as §3

P38γ = P38γ (Homo sapiens, UniProt P53778); experiment: Kinase counter-screen, Ki; type: biochemical; settings: apparent Ki
Chain of P38γ (P53778 whole entry): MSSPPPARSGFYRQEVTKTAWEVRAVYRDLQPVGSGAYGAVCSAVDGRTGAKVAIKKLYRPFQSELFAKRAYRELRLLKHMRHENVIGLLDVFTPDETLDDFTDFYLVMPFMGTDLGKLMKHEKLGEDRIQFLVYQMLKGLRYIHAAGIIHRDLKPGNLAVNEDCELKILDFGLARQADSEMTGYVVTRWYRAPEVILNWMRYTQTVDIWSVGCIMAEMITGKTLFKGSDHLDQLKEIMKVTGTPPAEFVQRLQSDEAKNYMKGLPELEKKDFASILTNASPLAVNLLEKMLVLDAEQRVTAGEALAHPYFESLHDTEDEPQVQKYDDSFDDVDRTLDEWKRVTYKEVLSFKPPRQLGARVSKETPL
Source text: as §3

P38δ = P38δ (Homo sapiens, UniProt O15264); experiment: Kinase counter-screen, Ki; type: biochemical; settings: apparent Ki
Chain of P38δ (O15264 whole entry): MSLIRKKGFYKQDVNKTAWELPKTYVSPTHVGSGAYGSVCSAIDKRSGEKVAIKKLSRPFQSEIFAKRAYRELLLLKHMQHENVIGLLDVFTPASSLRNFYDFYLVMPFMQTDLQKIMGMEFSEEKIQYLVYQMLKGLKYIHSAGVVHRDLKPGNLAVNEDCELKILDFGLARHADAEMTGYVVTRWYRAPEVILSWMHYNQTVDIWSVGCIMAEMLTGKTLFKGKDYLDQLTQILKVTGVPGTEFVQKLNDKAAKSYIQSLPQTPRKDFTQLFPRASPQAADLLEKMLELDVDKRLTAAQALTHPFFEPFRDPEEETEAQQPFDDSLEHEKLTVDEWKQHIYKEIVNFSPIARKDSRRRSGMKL
Source text: as §3

ROCKII = ROCKII (Homo sapiens, UniProt O75116); experiment: Kinase counter-screen, Ki; type: biochemical; settings: apparent Ki
Chain of ROCKII (O75116 whole entry, species assumed): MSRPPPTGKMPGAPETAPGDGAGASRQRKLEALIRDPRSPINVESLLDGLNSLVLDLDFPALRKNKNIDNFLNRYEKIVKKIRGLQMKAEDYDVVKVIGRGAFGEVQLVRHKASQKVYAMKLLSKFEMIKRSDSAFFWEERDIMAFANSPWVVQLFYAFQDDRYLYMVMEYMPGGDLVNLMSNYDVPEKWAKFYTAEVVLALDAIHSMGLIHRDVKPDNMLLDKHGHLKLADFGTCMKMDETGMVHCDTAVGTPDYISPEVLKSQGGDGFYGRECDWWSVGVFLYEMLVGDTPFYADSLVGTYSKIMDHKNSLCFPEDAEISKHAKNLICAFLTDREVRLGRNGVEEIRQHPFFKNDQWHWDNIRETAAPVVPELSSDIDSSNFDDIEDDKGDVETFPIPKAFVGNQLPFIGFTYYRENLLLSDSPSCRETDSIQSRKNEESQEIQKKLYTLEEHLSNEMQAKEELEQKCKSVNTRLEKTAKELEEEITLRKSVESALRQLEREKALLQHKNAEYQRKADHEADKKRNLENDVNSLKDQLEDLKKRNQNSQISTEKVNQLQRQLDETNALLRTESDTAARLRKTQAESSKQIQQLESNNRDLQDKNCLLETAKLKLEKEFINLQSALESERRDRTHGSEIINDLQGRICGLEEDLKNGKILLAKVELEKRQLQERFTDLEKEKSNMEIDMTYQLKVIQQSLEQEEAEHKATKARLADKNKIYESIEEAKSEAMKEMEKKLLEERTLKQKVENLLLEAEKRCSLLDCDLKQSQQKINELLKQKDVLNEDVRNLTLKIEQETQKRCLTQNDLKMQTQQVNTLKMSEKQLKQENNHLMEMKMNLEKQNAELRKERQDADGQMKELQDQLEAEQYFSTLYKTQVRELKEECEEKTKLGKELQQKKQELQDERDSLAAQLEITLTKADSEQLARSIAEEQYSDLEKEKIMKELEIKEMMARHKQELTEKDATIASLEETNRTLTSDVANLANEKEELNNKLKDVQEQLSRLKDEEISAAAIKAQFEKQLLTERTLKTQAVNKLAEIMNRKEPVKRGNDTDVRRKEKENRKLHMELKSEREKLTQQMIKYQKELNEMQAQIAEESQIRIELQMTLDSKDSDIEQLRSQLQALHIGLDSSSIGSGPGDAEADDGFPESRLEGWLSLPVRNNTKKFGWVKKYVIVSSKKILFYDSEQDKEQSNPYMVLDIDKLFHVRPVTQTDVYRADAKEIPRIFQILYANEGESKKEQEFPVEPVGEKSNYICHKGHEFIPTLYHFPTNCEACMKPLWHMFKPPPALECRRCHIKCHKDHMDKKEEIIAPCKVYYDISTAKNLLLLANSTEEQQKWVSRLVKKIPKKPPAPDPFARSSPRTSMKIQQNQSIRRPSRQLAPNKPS
Source text: as §3

A375 xenografts [1] = experiment: Antitumor activity in A375 xenografts, monotherapy; type: in vivo, mice; settings: 14 days
Procedure: (§1) For measurement of antitumor activity in A375 xenografts, xenografts were initiated with A375 cells maintained by serial subcutaneous transplantation in female athymic nude mice. Each test mouse received an A375 tumor fragment (1 mm^3) implanted subcutaneously in the right flank. Once tumors reached target size (80-120 mm^3), animals were randomized into treatment and control groups, and drug treatment was initiated.
Oral temozolomide was administered as a positive reference compound at 75 or 175 mg/kg once daily (QD) for a total of five treatments (QD×5).

A375 xenografts [2] = experiment: A375 xenografts, BVD-523 in combination with dabrafenib; type: in vivo, mice; settings: 100 mg/kg BID
Source text: as §1
(§2) Combination dosing was stopped on Day 20 to monitor for tumor regrowth. Animals were monitored individually and euthanized when each tumor reached an endpoint volume of 2000 mm^3, or the final day (Day 45), whichever came first, and median time to endpoint (TTE) calculated. The combination was also evaluated in an upstaged A375 model where larger tumors in the range 228-1008 mm^3 were evaluated. Here, mice were randomized into 1 group (Group 1) of 14 and 4 groups (Groups 2-5) of 20. […] Tumors were measured twice weekly. Combination dosing was stopped on Day 42 to monitor for tumor regrowth through study end (Day 60). Treatment outcome was determined from % TGD, defined as the percent increase in median TTE for treated versus control mice, with differences between groups analyzed via log rank survival analysis. […] Mice were also monitored for CR and PR responses. Animals with a CR at the end of the study were additionally classified as TFS.

upstaged A375 xenografts = experiment: Upstaged A375 xenograft model, BVD-523 in combination with dabrafenib; type: in vivo, mice; settings: 100 mg/kg BID
Procedure: as §2

[3] = test system: ERK1/2 phosphorylation in Colo205 xenografts; experiment: pERK1/2 in Colo205 xenograft tumors (ITIS mass spectrometry, IHC); type: in vivo, mice; settings: single 100 mg/kg oral dose
Procedure: For measurement of ERK1/2 Isotope-Tagged Internal Standard (ITIS) Mass Spectrometry in Colo205 Xenografts, frozen tumors were lysed in 10 volumes of ice cold lysis buffer (10 mM TRIS-HCl, pH 8.0, 10 mM MgCl2, 1% (v/v) Triton X-100, Complete™ Protease Inhibitor Cocktail [Roche, cat. No. 1836170], Phosphatase Inhibitor Cocktail I [Sigma, cat. No. P-2850], Phosphatase Inhibitor Cocktail II [Sigma cat. No. 5726], and benzonase [Novagen cat. No. 70664]). Lysates were clarified by centrifugation (100,000×g for 60 minutes at 4° C.) and the supernatants adjusted to 2 mg/mL with lysis buffer. ERK1 was immunoprecipitated using agarose-coupled and pan-anti-ERK1 (Santa Cruz Biotechnology cat. No. sc-93ac) antibodies. […]
For ITIS analysis, digested samples were spiked with heavy-atom labeled peptide standards and fractional phosphorylation was quantified by coupled liquid chromatography-tandem mass spectrometry (MS). […]
For analysis of pERK IHC in Colo205 xenografts, xenograft tumors were processed overnight in 70% through 100% graded ethanols, cleared in two changes of xylene, infiltrated with paraffin, and embedded into paraffin blocks. […] A single section from each animal and dose group was probed with anti-phospho p42/p44 MAPK antibody (pERK [1:100], CST; Cat no. 9101; Lot no. 16), counterstained with hematoxylin, and then analyzed microscopically using a Zeiss Axioplan 2 microscope. […]

[4] = test system: PMA stimulated ERK activity (RSK-1 phosphorylation); experiment: Phase I study: pharmacodynamic target inhibition (pRSK in patient whole blood); type: in vivo; settings: Homo sapiens, 360 h, prior to Day 15 dosing
ERK1 = ERK1 (Homo sapiens, UniProt P27361); experiment: biochemical
Chain of ERK1 (P27361 whole entry): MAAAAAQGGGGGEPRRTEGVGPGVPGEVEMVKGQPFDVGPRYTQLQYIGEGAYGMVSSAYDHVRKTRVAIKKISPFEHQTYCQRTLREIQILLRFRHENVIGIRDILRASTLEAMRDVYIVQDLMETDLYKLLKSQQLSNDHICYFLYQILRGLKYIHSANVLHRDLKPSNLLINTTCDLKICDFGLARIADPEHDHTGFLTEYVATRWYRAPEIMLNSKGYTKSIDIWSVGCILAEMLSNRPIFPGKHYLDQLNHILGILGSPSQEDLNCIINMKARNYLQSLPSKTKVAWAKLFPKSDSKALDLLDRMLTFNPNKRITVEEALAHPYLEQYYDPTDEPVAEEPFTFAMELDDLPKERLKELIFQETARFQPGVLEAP
Procedure: The reaction was initiated by the addition of 65 μM of ATP. Decreased absorbance rate (340 nm) was monitored and the IC50 was determined as a function of inhibitor concentration.

Colo205 xenografts = experiment: BVD-523 activity in Colo205 xenografts

## O=C(Nc1ccc2[nH]nc(-c3ccncc3)c2c1)[C@@H]1CCN(CC(=O)N2CCN(c3ccc(-c4ncccn4)cc3)CC2)C1 [SCH772984]
RKO colorectal cell line
  pERK1/2 in nuclear and cytoplasmic fractions: inhibited phosphorylation of ERK1/2 and RSK

## CC(C)Nc1cc(-c2c[nH]c(C(=O)N[C@H](CO)c3cccc(Cl)c3)c2)c(Cl)cn1 [BVD-523]
CDK1/cyclinB
  Ki: 0.07 µM
JNK2α
  Ki: 0.65 µM
JNK3
  Ki: 1.3 µM
P38γ
  Ki: 0.45 µM
P38δ
  Ki: 0.24 µM
ROCKII
  Ki: 0.27 µM
A375 xenografts [1]; 50 mg/kg BID p.o.
  tumor growth inhibition (TGI): 71%
A375 xenografts [1]; 100 mg/kg BID p.o.
  tumor growth inhibition (TGI): 99%
A375 xenografts [2]
  durable complete responses: 2
Upstaged A375 xenografts
  PRs: 2
[3]
  time of maximal ERK1/2 phosphorylation post-dose: 8 h
  time of return of pERK1/2 to pre-dose levels: ≤ 24 hours
[4]; 10 mg BID
  inhibition at 10 mg: 0%
[4]; 900 mg BID
  inhibition at 900 mg: 93 ± 8%
ERK1; Ki against recombinant ERK1, tight-binding
  Ki: < 0.0003 µM
ERK1; Ki, ERK1
  Ki: ≤ 0.0003 µM
Colo205 xenografts; 25 mg/kg BID
  T/C: 25.2%
Colo205 xenografts; 50 mg/kg BID
  mean tumor regression T/Ti: −48.2%
Colo205 xenografts; 75 mg/kg BID
  mean tumor regression T/Ti: −77.2%
Colo205 xenografts; 100 mg/kg BID
  mean tumor regression T/Ti: −92.3%
